According to US8754226B2, “Piperidinyl-substituted lactams as GPR119 modulators” (Array BioPharma Inc., priority 2010, dated 2014):
Structures can show the parent of a compound that is named as a salt.

System: modified version of the GPR119 receptor (94% identity to human receptor)
Experiment: cAMP production assay (LANCE cAMP kit, TR-FRET) in HEK-293 cells
Type: cell-based
Settings: for cAMP production in HEK-293 cells: HEK-293 cells stably expressing modified GPR119, test compounds 0.2 nM to 10 μM, one-hour incubation at ambient temperature; for Fold over baseline: increase in cAMP relative to basal levels, agonist activity if 1.5-fold or greater
Protocol: The assay utilized HEK-293 cells that stably express a modified version of the GPR119 receptor (94% identity to human receptor), under the control of a CMV promoter containing a tet-on element for tetracycline-inducible expression. GPR119 agonist-induced cyclic AMP (cAMP) production was measured in this cell line using the LANCE cAMP kit (Perkin Elmer, Waltham, Mass.). To generate a working stock of cells for the assay, cells were treated overnight with 1 μg/mL doxycycline at 37° C. in the presence of 5% CO2 to induce receptor expression. Cells were then harvested by enzymatic dissociation with 0.05% trypsin, resuspended in freezing medium (DMEM growth medium with 10% each of fetal bovine serum and DMSO), aliquoted and frozen at −80° C. On the day of the assay, frozen cells were thawed, washed 1× in PBS and resuspended in Hank's buffered salt solution (HBSS) containing 5 mM HEPES, 0.1% BSA and Alexa Fluor 647-conjugated anti-cAMP antibody (diluted 1:100). The cell suspension was then transferred to a Proxiplate Plus white 384-well assay plate (Perkin-Elmer) at 2000 cells/well. Test compounds at final concentrations ranging from 0.2 nM to 10 μM were added to the assay plate, followed by a one-hour incubation at ambient temperature (volume=10 μL/well). DMSO concentration was held constant at 0.5%. After incubation with test compounds, 10 μL of a detergent buffer containing a biotinylated cAMP/Europium-conjugated streptavidin complex (Europium-labeled cAMP tracer) were added to each well on the assay plate, followed by a 2-hour incubation at ambient temperature. During this incubation cAMP released from lysed cells competes with the Europium-labeled cAMP tracer for binding to the Alexa Fluor 647-conjugated antibody. […] Cellular cAMP levels were then determined by interpolation of raw signal data using a cAMP standard curve. Compounds were determined to have agonist activity if they stimulated a 1.5-fold or greater increase in cAMP relative to basal levels.

Compound | cAMP production in HEK-293 cells [nmol] | Fold over baseline
CS(=O)(=O)c1cc(F)c(N[C@H]2CCN(C3CCN(c4ncc(C(F)(F)F)cc4Cl)CC3)C2=O)c(F)c1 [Example 108, (S)-1-(1-(3-chloro-5-(trifluoromethyl)pyridin-2-yl)piperidin-4-yl)-3-(2,6-difluoro-4-(methylsulfonyl)phenyl-amino)pyrrolidin-2-one] | 15.8 | 2.6
CS(=O)(=O)c1ccc(N[C@H]2CCCN(C3CCN(c4cnc(Cl)cn4)CC3)C2=O)c(F)c1 [Example 44, (S)-1′-(5-chloropyrazin-2-yl)-3-(2-fluoro-4-(methylsulfonyl)phenylamino)-[1,4′-bipiperidin]-2-one] | 20.4 | 4.1
Cc1cc(S(C)(=O)=O)ncc1N[C@H]1CCN(C2CCN(c3ncc(Cl)cc3Cl)CC2)C1=O [Example 125, (S)-1-(1-(3,5-dichloro-pyridin-2-yl)piperidin-4-yl)-3-(4-methyl-6-(methylsulfonyl)pyridin-3-ylamino)pyrrolidin-2-one] | 9.0 | 2.0
CS(=O)(=O)c1ccc(N[C@H]2CCN(C3CCN(c4ccc(C(F)(F)F)cn4)CC3)C2=O)c(F)c1 [Example 103, (S)-3-(2-fluoro-4-(methyl-sulfonyl)phenylamino)-1-(1-(5-(trifluoromethyl)pyridin-2-yl)piperidin-4-yl)pyrrolidin-2-one] | 15.4 | 2.7
CCc1cnc(N2CCC(N3CC[C@H](Nc4ccc(S(=O)(=O)CC)cc4F)C3=O)CC2)nc1 [Example 34, (S)-1-(1-(5-ethylpyrimidin-2-yl)piperidin-4-yl)-3-(4-(ethylsulfonyl)-2-fluorophenylamino)pyrrolidin-2-one] | 11.4 | 2.8
CS(=O)(=O)c1ccc(N[C@H]2CCN(C3CCN(c4cncc(Cl)n4)CC3)C2=O)c(F)c1 [Example 18, (S)-1-(1-(6-chloropyrazin-2-yl)piperidin-4-yl)-3-(2-fluoro-4-(methylsulfonyl)phenylamino) pyrrolidin-2-one] | 7.7 | 1.8
COC(=O)c1ccc(O[C@H]2CCN(C3CCN(c4ncc(C(F)(F)F)cc4Cl)CC3)C2=O)c(F)c1 [Example 140, (S)-methyl 4-(1-(1-(3-chloro-5-(trifluoro-methyl)pyridin-2-yl)piperidin-4-yl)-2-oxopyrrolidin-3-yloxy)-3-fluorobenzoate] | 12.2 | 2.7
CCc1cnc(N2CCC(N3CCC[C@H](Nc4ccc(S(C)(=O)=O)cc4C(F)(F)F)C3=O)CC2)nc1 [Example 55, (S)-1′-(5-ethylpyrimidin-2-yl)-3-(4-(methylsulfonyl)-2-(trifluoromethyl)phenylamino)-[1,4′-bipiperidin]-2-one] | 9.3 | 2.6
O=C1[C@@H](Oc2ccc(-n3cnnn3)cc2)CCN1C1CCN(c2ncc(C(F)(F)F)cc2Cl)CC1 [Example 137, (S)-3-(4-(1H-tetrazol-1-yl)phenoxy)-1-(1-(3-chloro-5-(trifluoro-methyl)pyridin-2-yl)piperidin-4-yl) pyrrolidin-2-one] | 31.7 | 6.5
O=C(c1ccc(O[C@H]2CCN(C3CCN(c4ncc(Cl)cc4F)CC3)C2=O)c(F)c1)N1CC[C@H](O)C1 [Example 153, (S)-1-(1-(5-chloro-3-fluoropyridin-2-yl)piperidin-4-yl)-3-(2-fluoro-4-((S)-3-hydroxypyrrolidine-1-carbonyl)phenoxy)pyrrolidin-2-one] | 14.3 | 3.1
CS(=O)(=O)c1cc(F)c(N[C@H]2CCN(C3CCN(c4ccc(C(F)(F)F)cn4)CC3)C2=O)cc1F [Example 100, (S)-3-(2,5-difluoro-4-(methylsulfonyl)phenylamino)-1-(1-(5-(trifluoromethyl)pyridin-2-yl)piperidin-4-yl)pyrrolidin-2-one] | 8.4 | 2.6
CCc1ccc(N2CCC(N3CC[C@H](Nc4ccc(S(C)(=O)=O)cc4F)C3=O)CC2)nc1 [Example 27A, (S)-1-(1-(5-Ethylpyridin-2-yl)piperidin-4-yl)-3-(2-fluoro-4-(methylsulfonyl)phenylamino)pyrrolidin-2-one] | 12.9 | 2.9
CC1(C)CN(c2cnc(Cl)cn2)CCC1N1CC[C@H](Nc2ccc(S(C)(=O)=O)cc2F)C1=O (stereo partly drawn) [Example 162, (3S)-1-(1-(5-chloropyrazin-2-yl)-3,3-dimethylpiperidin-4-yl)-3-(2-fluoro-4-(methylsulfonyl)phenylamino)pyrrolidin-2-one] | 16.2 | 2.8
CS(=O)(=O)c1ccc(O[C@@H]2C(=O)N(C3CCN(c4cnc(Cl)cn4)CC3)C[C@@H]2O)c(F)c1 [Example 39, (3S,4S)-1-(1-(5-chloropyrazin-2-yl)piperidin-4-yl)-3-(2-fluoro-4-(methylsulfonyl)phenoxy)-4-hydroxypyrrolidin-2-one] | 20.6 | 3.7
CS(=O)(=O)c1ccc(N[C@H]2CCN(C3CCN(c4ncc(Cl)cc4F)CC3)C2=O)c(F)c1 [Example 115, (S)-1-(1-(5-chloro-3-fluoropyridin-2-yl)piperidin-4-yl)-3-(2-fluoro-4-(methylsulfonyl)phenyl-amino)pyrrolidin-2-one] | 15.4 | 3.8
CC(C)c1cnc(N2CCC(N3CC[C@H](Nc4ccc(S(C)(=O)=O)cc4F)C3=O)CC2)nc1 [Example 29, (S)-3-(2-fluoro-4-(methylsulfonyl)phenylamino)-1-(1-(5-isopropylpyrimidin-2-yl)piperidin-4-yl)pyrrolidin-2-one trifluoroacetate] | 11.5 | 2.1
CS(=O)(=O)c1cc(F)c(N[C@H]2CCN(C3CCN(c4ncc(C(F)(F)F)cc4Cl)CC3)C2=O)cc1F [Example 111, (S)-1-(1-(3-chloro-5-(trifluoromethyl)pyridin-2-yl)piperidin-4-yl)-3-(2,5-difluoro-4-(methylsulfonyl)phenyl-amino)pyrrolidin-2-one] | 37.9 | 3.0
CCc1cnc(N2CCC(N3CCCC(Nc4ccc(S(C)(=O)=O)cc4F)C3=O)CC2)c(C)c1 (stereo not drawn) [Example 77, 1′-(5-ethyl-3-methylpyridin-2-yl)-3-(2-fluoro-4-(methylsulfonyl)phenylamino)-[1,4′-bipiperidin]-2-one] | 21.3 | 2.5
CS(=O)(=O)c1cc(F)c(OC2CCN(C3CCN(c4ncc(-c5ccccc5)cn4)CC3)C2=O)cc1F (stereo not drawn) [Example 88, 3-(2,5-difluoro-4-(methylsulfonyl)phenoxy)-1-(1-(5-phenylpyrimidin-2-yl)piperidin-4-yl)pyrrolidin-2-one trifluoroactetate] | 9.1 | 2.4
CCc1cnc(N2CCC(N3CC[C@H](Nc4cc5c(cc4Cl)C(=O)CCO5)C3=O)CC2)nc1 [Example 36] | 17.4 | 3.2
CS(=O)(=O)c1ccc(N[C@H]2CCCCN(C3CCN(c4cnc(Cl)cn4)CC3)C2=O)c(F)c1.Cl [Example 80, (S)-1-(1-(5-chloropyrazin-2-yl)piperidin-4-yl)-3-(2-fluoro-4-(methylsulfonyl)phenylamino)azepan-2-one hydrochloride] | 18.3 | 3.7
CCS(=O)(=O)c1ccc(N[C@H]2CCN(C3CCN(c4ncc(Cl)cc4F)CC3)C2=O)cn1 [Example 127, (S)-1-(1-(5-chloro-3-fluoropyridin-2-yl)piperidin-4-yl)-3-(6-(ethylsulfonyl)pyridin-3-ylamino)pyrrolidin-2-one] | 13.0 | 2.7
CCc1cnc(N2CCC(N3CCC[C@H](Nc4c(F)cc(S(C)(=O)=O)cc4F)C3=O)CC2)nc1 [Example 49, (S)-3-(2,6-difluoro-4-(methylsulfonyl)phen-ylamino)-1′-(5-ethylpyrimidin-2-yl)-[1,4′-bipiperidin]-2-one] | 10.6 | 2.2
CS(=O)(=O)c1ccc(N[C@H]2CCN(C3CCN(c4ncc(-c5ccccc5)cn4)CC3)C2=O)c(F)c1 [Example 9, (S)-3-(2-fluoro-4-(methyl-sulfonyl)phenylamino)-1-(1-(5-phenylpyrimidin-2-yl)piperidin-4-yl)pyrrolidin-2-one] | 13.5 | 2.3
